Results published in patent publication US4168206A, “Impregnated disk method for testing antifungal susceptibility” (Philadelphia College of Osteopathic Medicine, priority 1977, dated 1979).
Values after ≈ are worked out from the molar mass of the structure shown. Where two headings read alike, the source gives them in different places.

Legend:
Type in all cases: cell-based
[1] = system: Candida albicans; experiment: MIC by broth dilution method, Candida albicans; details: Candida albicans
From the text: (§1) The preparation of the nutrient media, the antifungal agents and the fungi to be tested in the present invention are similar to those reported in S. Shadomy and A. Espinel-Ingroff, "Susceptibility Testing Of Antifungal Agents", Ch. 63, pp. 569-574 in E. H. Lennett, E. H. Spaulding, and J. P. Truant, Eds., Manual Of Clinical Microbiology, 2nd Ed., American Society for Microbiology, Washington, D.C. (1974). This publication describes the susceptibility testing of antifungal agents, namely, amphotericin B, nystatin and 5-fluoro-cytosine (5-FC), by the "broth dilution method" and the "semisolid agar dilution method". At pages 570-571, it is stated:
(§2) In 10 duplicate runs with each strain tested, the variation in minimum inhibitory concentration averaged ±0.05 μg/ml.
(§3) *Broth dilution method conducted in accordance with S. Shadomy and E.
(§4) Espinel-Ingroff, "Susceptibility Testing of Antifungal Agents", Ch. 63,
(§5) pp. 569-574 in E. H. Spaulding and J. P. Truant, Eds., Manual Of Clinical
(§6) Microbiology, 2nd Ed., American Society for Microbiology, Washington, […]

[2] = system: C. parapsilosis; experiment: MIC by broth dilution method, Candida parapsilosis; details: Lodderomyces parapsilosis
From the text: as §1, §2, §3, §4, §5, §6

[3] = system: Geotrichum candidum; experiment: MIC by impregnated disk method, Geotrichum candidum; details: read-out: Minimum Inhibitory Concentration, Disk
Procedure: (§7) Stock solutions of the antifungal agents to be tested are preferably prepared by diluting the antifungal agents in the proper nutrient medium. It is presently preferred to prepare dilutions in 10 ml of the proper medium to give the following final concentrations when applied to the disks (all quantities in micrograms per milliliter): 0.05, 0.08, 0.09, 0.1; 0.1 increment increases to 0.9, 1.0; 0.5 increment increases to 10.0; and 12.0, 14.0, 20.0, 25.0 and 50.0. Disks have been prepared by placing 0.05 ml of the above dilutions of antifungal agent containing medium on 6.5 mm diameter disks in 0.01 or 0.02 ml increments. The impregnated disks are then allowed to dry at a temperature preferably below about 10° C. […] The disks may also be dried by a lyophilization or freeze drying process.
(§8) To perform the tests in accordance with the present inventions, disks impregnated with various concentrations of antifungal agent and nutrient medium and a control disk impregnated only with the corresponding nutrient medium are placed on the fungus to be tested which has been applied to the non-nutrient medium. The disks are the inoculated non-nutrient medium are then incubated at a suitable temperature for a sufficient time to promote growth of the fungus. Any temperature is suitable if it will promote growth of the fungus without adversely affecting the fungus or the activity of the antifungal agent or agents tested. The time of incubation can be determined by observing the extent of growth around the control disk. […] The zones of growth or inhibition around the disks were read at 6, 12, 24, 36 and 48 hours after the disks were placed on the tested fungus.
The minimum inhibitory concentration is defined as the lowest concentration of antifungal agent which inhibits visible growth. […]
Several test disks and a control disk were placed in each petri dish containing the inoculated agar. The disks and petri dishes were then incubated at 29° C. and the minimum inhibitory concentration of the various concentrations of the antifungal agents were read at 6, 12, 24, 36 and 48 hours. […]

[4] = system: Saccharomyces cerevisiae; experiment: MIC by impregnated disk method, Saccharomyces cerevisiae; details: Saccharomyces cerevisiae
Procedure: as §7, §8
The minimum inhibitory concentration is defined as the lowest concentration of antifungal agent which inhibits visible growth. The disks containing concentrations of antifungal agents below the minimum inhibitory concentration show circumscribed growth of the fungus around the disk. Disks containing concentrations of antifungal agent at or above the minimum inhibitory concentration show no circumscribed growth.
Clinical isolates of various fungi listed in Table 1 were obtained from different patients diagnosed as having fungal infections. The fungal inocula were prepared by using a 24-48 hour cultures grown in yeast nitrogen base containing 1% glucose and 0.15% asparagine. After centrifuging, the supernatant was removed, the sedimented cells were washed twice with sterile distilled water and a cell suspension was adjusted to 80% transmission at 520 nm using a Beckman DB-GT grating spectrophotometer.
Sterile liquified 2% purified agar was placed in petri dishes and allowed to harden. The surface of the agar was inoculated with a sterile cotton swab saturated with a suspension of an organism. The uniformly swabbed plates were then allowed to dry.
Disks were prepared using the dilutions described above for amphotericin B, nystatin and 5-fluorocytosine. 0.05 ml of the dilutions of each antifungal agent diluted with the appropriate nutrient medium were pipetted on 6.5 mm diameter disks. The disks were dried at 4° C. after each application. Control disks were also prepared.
Several test disks and a control disk were placed in each petri dish containing the inoculated agar. The disks and petri dishes were then incubated at 29° C. and the minimum inhibitory concentration of the various concentrations of the antifungal agents were read at 6, 12, 24, 36 and 48 hours.
as §2

[5] = system: Saccharomyces cerevisiae; experiment: MIC by broth dilution method, Saccharomyces cerevisiae; details: Saccharomyces cerevisiae
From the text: as §1, §2, §3, §4, §5, §6

[6] = system: Torulopsis glabrata; experiment: MIC by broth dilution method, Torulopsis glabrata; details: Nakaseomyces glabratus, read-out: Minimum Inhibitory Concentration, Broth
From the text: as §1, §2, §3, §4, §5, §6

[7] = system: Candida albicans; experiment: Minimum fungicidal concentration by broth dilution method
From the text: as §1
The minimal fungicidal concentrations of amphotericin B for the first 6 isolates of Candida albicans listed in Table 1 were determined by incubating the disks and organisms for 48 hours. At concentrations below the minimum fungicidal concentration, overgrowth occurred by 48 hours.

[8] = system: Candida albicans; experiment: Susceptibility to combination of antifungal agents on disks (Example 2); details: Candida albicans isolate
From the text: (§9) The method of the present invention also may be used to test combinations of antifungal agents. In this method, more than one antifungal agent of known concentration is impregnated in each test disk.
(§10) Each disk is impregnated with a particular known concentration of at least one particular antifungal agent, except for the control disks. When the susceptibility of a fungus to combinations of antifungal agents is being tested, more than one antifungal agent is impregnated in each test disk.
(§11) The susceptibility of two other isolates to combinations of antifungal agents were tested by combining more than one antifungal agent on each test disk. A series of test disks were prepared containing various combinations of antifungal agents in various concentrations and were used in the method of the present invention. The results of this procedure are summarized in the following specific, non-limiting examples:
This is a significant reduction in amphotericin B.

[9] = system: Candida tropicalis; experiment: Susceptibility to combination of antifungal agents on disks (Example 3)
From the text: as §9, §10, §11
An isolate of Candida tropicalis was initially tested for amphotericin B susceptibility of 0.5 μg/ml. When a combination of amphotericin B and tetracycline were combined on the disks used in the testing procedure according to the present invention, effective inhibition of the isolate occurred using 0.05 μg/ml of amphotericin B and 0.2 μg/ml of tetracycline.

C[C@@H]1[C@H](O)[C@@H](C)/C=C/C=C/C=C/C=C/C=C/C=C/C=C/[C@H](O[C@@H]2O[C@H](C)[C@@H](O)[C@H](N)[C@@H]2O)C[C@@H]2O[C@](O)(C[C@@H](O)C[C@@H](O)[C@H](O)CC[C@@H](O)C[C@@H](O)CC(=O)O[C@H]1C)C[C@H](O)[C@H]2C(=O)O [Amphotericin B, amphotericin B]
MIC ([1]; isolate 1, read-out: Minimum Inhibitory Concentration, Broth): 0.4 µg/mL (≈ 0.433 µM) | MIC ([1]; isolate 2, read-out: Minimum Inhibitory Concentration, Broth): 0.7 µg/mL (≈ 0.758 µM) | MIC ([1]; isolate 3, read-out: Minimum Inhibitory Concentration, Broth): 0.1 µg/mL (≈ 0.108 µM) | MIC ([1]; isolate 4, read-out: Minimum Inhibitory Concentration, Broth): 0.6 µg/mL (≈ 0.649 µM) | MIC ([1]; isolate 5, read-out: Minimum Inhibitory Concentration, Broth): 0.8 µg/mL (≈ 0.866 µM) | MIC ([1]; isolate 6, read-out: Minimum Inhibitory Concentration, Broth): 1.5 µg/mL (≈ 1.62 µM) | MIC ([2]; read-out: Minimum Inhibitory Concentration, Broth, C. parapsilosis isolate 1): 0.8 µg/mL (≈ 0.866 µM) | MIC ([2]; read-out: Minimum Inhibitory Concentration, Broth, C. parapsilosis isolate 2): 0.6 µg/mL (≈ 0.649 µM) | MIC [3]: 0.8 µg/mL (≈ 0.866 µM) | MIC ([4]; read-out: Minimum Inhibitory Concentration, Disk, S. cerevisiae isolate 2): 0.6 µg/mL (≈ 0.649 µM) | MIC ([4]; read-out: Minimum Inhibitory Concentration, Disk, Saccharomyces cerevisiae isolate 1): 0.4 µg/mL (≈ 0.433 µM) | MIC ([5]; read-out: Minimum Inhibitory Concentration, Broth, S. cerevisiae isolate 2): 0.8 µg/mL (≈ 0.866 µM) | MIC ([5]; read-out: Minimum Inhibitory Concentration, Broth, Saccharomyces cerevisiae isolate 1): 0.4 µg/mL (≈ 0.433 µM) | MIC [6]: 0.3 µg/mL (≈ 0.325 µM) | MFC ([7]; isolate 1): 1.5 µg/mL (≈ 1.62 µM) | MFC ([7]; isolate 2): 1.6 µg/mL (≈ 1.73 µM) | MFC ([7]; isolate 3): 0.8 µg/mL (≈ 0.866 µM) | MFC ([7]; isolate 4): 1.1 µg/mL (≈ 1.19 µM) | MFC ([7]; isolate 5): 1.6 µg/mL (≈ 1.73 µM) | MFC ([7]; isolate 6): 6.5 µg/mL (≈ 7.03 µM) | amphotericin B susceptibility ([8]; alone, previously tested): 0.8 µg/mL | amphotericin B susceptibility ([8]; in combination with tetracycline): 0.2 µg/mL | MIC ([9]; Candida tropicalis isolate, alone, initially tested, read-out: amphotericin B susceptibility): 0.5 µg/mL | effective inhibition of the isolate, concentration of amphotericin B ([9]; in combination with tetracycline 0.2 μg/ml): 0.05 µg/mL
